Several values for one entry are separate records, joined by “and”; a condition that tells them apart may be missing. Equal values may be shown once.
Legend:
[1] = target: anti-cotinine antibody (SEQ ID NO: 9/10, humanized version); test: SPR binding of anti-cotinine antibody to ARM compounds, Biacore 8k, 25° C., humanized antibody (Example 202)
From the text: (§1) Anti-cotinine antibodies having a heavy chain sequence of SEQ ID NO: 9 and a light chain sequence of SEQ ID NO: 10 (humanized version) or a heavy chain sequence of SEQ ID NO: 11 and a light chain sequence of SEQ ID NO: 12 (rabbit version) were captured via the Fc domain to a protein A or A/G surface on flow cell 2 of a CMS sensor chip using the Biacore 8k.
(§2) After antibody capture, a 1500 second wait step was included to reduce drift in the binding step. ARM compounds of Formula (I) were then flowed over the captured antibodies at varying top concentrations ranging from 250 nM to 4 μM (see Table 6 below for top concentration values). The top concentration was diluted 4-fold over 5 dilutions (with a 0 nM compound cycle included to blank subtract the data). Association and dissociation times of the ARMs compounds of Formula (I) varied between experiments as follows and indicated in Table 6 below: reference 1-association for 600 seconds and dissociation for 1200 seconds at 20 μl/min; reference 2-association for 240 seconds and dissociation for 300 seconds at 30 μl/min; reference 3-association for 360 seconds and dissociation for 600 seconds at 30 μl/min. Anti-cotinine antibody bound to the protein A or A/G surface was regenerated using 50 mM NaOH. Experiments were run at 25° C. at pH 7.4 using HBS-EP+ buffer using Biacore 8K control software and evaluated using Biacore Insight Evaluation software. Curves were fit with the 1:1 kinetic fit inherent to the software, utilising a local Rmax and local drift setting.
(§3) Anti-cotinine antibody was tested for binding to ARMs compounds of Formula (I) of the invention in the above assay in or more experimental runs and the results are shown in Table 6 below. Affinity is reported as a pKd value. The pKd value is the negative log of the Kd value, wherein the Kd value is the dissociation constant measured in molar (M) as noted above. For compounds tested in more than one experimental run, the pKd value is reported as an average.

CCR2+ expressing cells = test: Alternative dosing strategy (Example 206): percent depletion of CCR2+ expressing cells by flow cytometry; type: in vivo; details: co-dosed vs sequentially dosed intravenously with anti-cotinine antibody
[2] = Alternative dosing strategy (Example 206): blood concentration of small molecule ARM compound; type: in vivo; details: co-dosed vs sequentially dosed intravenously with anti-cotinine antibody
From the text: FIG. 5: Alternative dosing strategy of small molecule ARM compound to anti-cotinine antibody, as described in Example 206, with anti-cotinine antibody administered intravenously and ARM compound (Example 1) administered subcutaneously following a 2-hour delay from antibody dosing at various molar ratios of small molecule ARM: antibody; data shown is blood concentration of small molecule ARM compound at various timepoints following administration.

[3] = system: anti-cotinine antibody (SEQ ID NO: 11/12, rabbit version); test: SPR binding of anti-cotinine antibody to ARM compounds, Biacore 8k, 25° C., rabbit antibody (Example 202); details: time reference 3 (association 360 s, dissociation 600 s, 30 μl/min)
From the text: as §1, §2, §3

[4] = time reference 3 (association 360 s, dissociation 600 s, 30 μl/min)

## CC(C)N(C)[C@@H]1CC[C@H](N2CC[C@H](Nc3ncnc4ccc(C(F)(F)F)cc34)C2=O)[C@H](NC(=O)[C@H]2CC[C@H](NC(=O)CCCO[C@H]3CC[C@H](OCCNC(=O)[C@H]4CC(=O)N(C)[C@@H]4c4cccnc4)CC3)CC2)C1 [Example 1, (2S,3S)-N-(2-(((1R,4S)-4-(4-(((1R,4R)-4-(((1R,2S,5R)-5-(Isopropyl(methyl)amino)-2-((S)-2-oxo-3-((6-(trifluoromethyl)quinazolin-4-yl)amino)pyrrolidin-1-yl)cyclohexyl)carbamoyl)cyclohexyl)amino)-4-oxobutoxy)cyclohexyl)oxy)ethyl)-1-methyl-5-oxo-2-(pyridin-3-yl)pyrrolidine-3-carboxamide]
[1]; time reference 1 (association 600 s, dissociation 1200 s, 20 μl/min)
  kd: 0.000456 s⁻¹ and 0.000649 s⁻¹
[1]; [4]
  ka: 1.64e+06 M⁻¹ s⁻¹
  kd: 0.000414 s⁻¹
  pKd: 9.6
CCR2+ expressing cells
  PD (percent depletion of CCR2+ expressing cells): unchanged
[2]
  PK (blood concentration of small molecule ARM compound): unchanged
[3]
  ka: 5.57e+06 M⁻¹ s⁻¹
  kd: 0.000156 s⁻¹
  pKd: 10.55
